Measured values: patent publication US20240408071A1, “NOVEL COMBINATION OF SEROTONIN RECEPTOR (5-HTR2B) ANTAGONIST AND AN IMMUNOMODULATOR AND CHEMOTHERAPEUTIC DRUGS FOR INHIBITION OF CANCER” (NATIONAL CENTRE FOR CELL SCIENCE, priority 2021, published 2024)

Assays:
MC38 cells = assay: Cell cycle analysis of MC38 cells by propidium iodide staining (flow cytometry); format: cell-based, mouse; conditions: 48-hour stimulation; BW-723C86 50 μM, SB-215505 50 μM per FIG. 6 legend
Procedure: FIG. 6 depicts that 5-HTR2B signalling in colon cancer affects cell proliferation and viability: Colon cancer MC38 cells were treated with serotonin (100 μM), 5-HTR2B agonist (BW-723C86; 50 μM), or 5-HTR2B antagonist (SB-215505; 50 μM) for 48 hours, and cell cycle analysis was performed by propidium iodide staining using flow cytometry. MC38 cells were also treated with a graded dose of 5-HTR2B agonist (BW-723C86) or serotonin. MTT assay was performed to measure cell viability. (A) After treatment with 5-HTR2B agonist BW-723C86, serotonin, or 5-HTR2B antagonist SB-215505, the relative cell cycle analysis is shown. (B) Relative cell viability data of MC38 cells following treatment of graded doses of 5-HTR2B agonist BW-723C86 or serotonin are shown. The data shown are representative of one of the three independent experiments. (C) MC38 tumor sections from the control tumor and 5-HTR2B antagonist treated tumor were stained for CD31 and the number of CD31^+ micro-blood vessels/mm^2 of tissue sections was counted and plotted to observe angiogenesis. Error bar represents ±standard error of the mean (SEM).
MC38 cells were seeded in 6 well plates at a density of 5×10^4 cells/well. Cells were allowed to accommodate in the environment for 24 hours. The treatment with 5-HTR2B agonist (BW-723C86), Serotonin, and 5-HTR2B antagonist (RS-127445) was performed at different time points. […]

[1] = tested on: tumor-infiltrating immune cells in MC38 tumor; assay: Tumor-infiltrating immune cells in MC38 tumor (flow cytometry / immunohistochemistry); format: in vivo, C57BL/6 mice
Procedure: FIG. 7 depicts that antagonizing the 5-HTR2B in mice inhibits breast and colon tumor growth: (A) MC38 colon cancer cells were injected subcutaneously into the right flank of C57BL/6 mice. […] Tumor volumes were measured and plotted. (B) MC38 colon cancer cells were injected subcutaneously into the right flank of C57BL/6 mice. After seven days when tumors became palpable, one group was treated with 5-HTR7 antagonist SB-269970 (n=6 mice; 3 mg/kg/day) or left untreated (n=6 mice). Tumor volume was measured and plotted. (C) After seven days of the setting of tumor growth, one group was treated with a serotonin transporter blocker (SSRI) sertraline hydrochloride (n=6 mice; 15 mg/kg/week) or left untreated (n=6 mice). Tumor volume was measured and plotted. (D) C57BL/6 mice were given subcutaneously injected MC38 cells. After seven days of tumor growth, one group of mice was treated with different doses of 5-HTR2B antagonist SB-215505 (n=6). Tumor volume was measured and plotted. (E) C57BL/6 mice were given subcutaneously injected MC38 cells. After seven days of the tumor growth, one group of mice was treated with different doses of 5-HTR2B antagonist SB-215505 (n=6), one group treated with 5-HTR2B agonist BW-723C86 (n=6; 4 mg/kg/day). Tumor volume was measured and plotted. (F) MC38 cells were subcutaneously injected into C57BL/6 mice. After seven days when the tumor became palpable in mice, one group of mice was treated with FDA-approved 5-HTR2B antagonist cariprazine (Carispec; Sun pharma) via oral gavage (n=5 mice; dose 5 mg/kg body weight/day) or left untreated (n=5 mice). Tumor growth was measured and plotted. (G) Breast cancer cell lines (4T1-Luc cells) were injected into the mammary fatpad of BALB/c mice. After seven days of the tumor growth setting in mice, one group of mice was treated with 5-HTR2B antagonist SB-215505(n=5 mice) or left untreated (n=5 mice). Tumour volumes were measured and plotted. (H) Mice melanoma (B16F10 cells) were injected subcutaneously in the left flank of C57BL/6J mice. After seven days of the tumor growth setting in mice, one group of mice was treated with 5-HTR2B antagonist SB-215505(n=5 mice) or left untreated (n=5 mice). Tumour volumes were measured and plotted. (I) Statistical analysis of the flow cytometric data showing the differential expression of F4/80^+CD11B^+ macrophages within MC38 tumor following treatment with 5-HTR2B antagonist. (J) Statistical analysis of the flow cytometric data showing the differential expression of F4/80^+CD11B^+ iNOS^+ M1 macrophages within MC38 tumor following treatment 5-HTR2B antagonist. (K) Statistical analysis of the flow cytometric data showing the differential expression of F4/80^+CD1B^+ Arg1^+ M2 macrophages within MC38 tumor following treatment with 5-HTR2B antagonist. (L) Immuno-Histochemistry data of MC38 tumor tissue from control and 5-HTR2B antagonist treated mice showing expression of F4/80 (cyan), iNOS (blue), arginase 1 (green), and CD11c (red). Images are taken in […] and inset images are acquired in 600× magnification and DAPI (blue) is used as counterstain. All the images in the panel were taken at 200× magnification. The image in the inset was taken in 600× magnification. All the statistical analysis was performed using Student's ‘t’ test or two-way ANOVA using Sidak's multiple comparison test. *P<0.05; **P<0.01; […]; ****P<0.0001 Error bar represents mean±standard error of means (SEM).
FIG. 9 depicts the effect of5-HTR antagonists on the CTL response MC38 tumor model in mice: (A) Clinical data correlation study. A TIDE computational method was used to study the association between the tumor-infiltrating CD8 T cells (also known as cytotoxic T lymphocytes, CTL) level and overall subject survival in relation to the intratumoral 5-HTR2B gene expression level. […]

[2] = compared with other 5-HTR2B antagonists; cited from earlier work
[3] = day 24, compared to control and SB-215505 treated tumor (FIG. 14)

Row | SMILES | percentage of MC38 cells in the S phase of the cell cycle (MC38 cells) | total CD11c+ DCs in the TME [1] | percentage of PD-L1+ CD11c+ DCs in the tumor [1, 3] | percentage of PD-L1+ arginase1+ M2 macrophages in the tumor [1, 3] | percentage of PD-L1+ total macrophages in the tumor [1, 3] | percentage of PD-L1+iNOS+ M1 macrophages in the tumor [1, 3] | percentage of total CD11b+Gr1+ MDSCs in the tumor [1, 3] | bioavailability [2]
1 | CC(N)Cc1c[nH]c2ccc(OCc3cccs3)cc12 (centres unmarked) [BW-723C86] | increased percentage of cells in the S phase |  |  |  |  |  |  | 
2 | CC(C)c1cc(-c2ccc(F)c3ccccc23)nc(N)n1 [RS-127445] |  | reducing the total CD11c^+ DCs | much reduced percentage | much reduced percentage | much reduced percentage | much reduced percentage | much reduced percentage | higher bioavailability
